Reference: PubChem BioAssay (NCI)
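These data come from cells grown in 96-well plates and exposed to compound for 48 hours at five concentrations. GI50 = concentration required for 50% inhibition of growth. TGI is the concentration that stops growth completely.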

Key:
Test in all cases: NCI tumour cell line growth inhibition, 48 h
[1] = test system: DMS 273 small cell lung
[2] = test system: HOP-18 NSCLC
[3] = test system: KM20L2 colon
[4] = test system: LXFL 529 NSCLC
[5] = test system: M19-MEL melanoma
[6] = test system: XF 498 CNS
[7] = test system: MDA-N
[8] = test system: DLD-1 colon
[9] = test system: RXF-631 renal
[10] = test system: P388/ADR leukemia
[11] = test system: SN12K1 renal

| Structure (SMILES) | TGI [1] | TGI [2] | TGI [3] | TGI [4] | TGI [5] | TGI [6] | TGI [7] | TGI [8] | also measured |
| --- | --- | --- | --- | --- | --- | --- | --- | --- | --- |
| Cc1c(C(=O)CC(=O)C(=O)Nc2cc(Cl)ccc2Cl)[n+](=O)c2ccccc2n1[O-] | 69.4 µM | > 100 µM | > 100 µM | > 100 µM | 59.1 µM | > 100 µM | – | – | – |
| CC(C(=O)O)c1ccc(-c2ccccc2)c(F)c1 (stereo unspecified) | – | – | – | – | – | – | > 100 µM | – | – |
| Clc1ccc2ns[s+]c2c1 | > 100 µM | > 100 µM | > 100 µM | > 100 µM | > 100 µM | > 100 µM | > 100 µM | > 100 µM | – |
| S=P(N1CCCC1)(N1CC1)N1CC1 | > 100 µM | > 100 µM | > 100 µM | – | > 100 µM | > 100 µM | – | > 100 µM | – |
| Cc1c(Cl)cccc1NC(=O)/C(Cl)=C(\Cl)C(=O)O | 38.4 µM | 31.7 µM | 40.9 µM | 46.5 µM | 30.7 µM | – | – | 40.6 µM | TGI [9]: 56.7 µM |
| CC1(C)C(=O)C=CC2(C)C1CC(O)C1(C)C2CCC2(C)C(c3ccoc3)OC(=O)C3OC321 (stereo unspecified) | – | – | – | – | – | – | 41.8 µM | – | – |
| COc1cc(C2c3cc4c(cc3[C@@H](OCCN(C)C)C3COC(=O)[C@H]23)OCO4)cc(OC)c1O (stereo partly specified) | 0.632 µM | 4.36 µM | 5.14 µM | 31.7 µM | 3.17 µM | 1.74 µM | – | 5.93 µM | TGI [9]: 1.78 µM |
| Cc1cc(=O)oc2cc(OC(=O)N(CCCl)CCCl)ccc12 | – | – | – | – | – | – | > 100 µM | – | – |
| CCOC(=O)c1c(-c2ccccc2)c(C(OC(c2ccccc2)c2c(-c3ccccc3)c(C(=O)OCC)n3ccccc23)c2ccccc2)c2ccccn12 (stereo unspecified) | > 100 µM | > 100 µM | > 100 µM | > 100 µM | – | > 100 µM | – | > 100 µM | – |
| COc1cc(C2c3cc4c(cc3[C@@H](N(C)C)[C@H]3COC(=O)C23)OCO4)cc(OC)c1O (stereo partly specified) | > 100 µM | – | 54.1 µM | > 100 µM | – | > 100 µM | – | > 100 µM | TGI [9]: > 100 µM |
| COC(=O)c1ccc(C(=O)OC)c2nc3cc(C)ccc3nc12 | > 100 µM | > 100 µM | > 100 µM | > 100 µM | – | > 100 µM | – | > 100 µM | TGI [9]: > 100 µM |
| CS(=O)(=O)NNS(=O)(=O)c1ccc(Cl)cc1 | > 100 µM | – | > 100 µM | > 100 µM | > 100 µM | > 100 µM | – | > 100 µM | TGI [9]: > 100 µM |
| Nc1nc(N)nc(CC(=O)O)n1 | – | – | – | – | – | – | > 100 µM | – | – |
| Nc1ccc(C(=O)CC2(O)C(=O)Nc3c(Cl)cc(Cl)cc32)cc1 (stereo unspecified) | – | > 100 µM | > 100 µM | > 100 µM | > 100 µM | – | – | > 100 µM | TGI [9]: 79.8 µM |
| COC(=O)[C@]1(C)CCC[C@@]2(C)[C@@H]3C[C@@H]4[C@H]5C[C@@]3(CC[C@@H]21)C[C@@]45C | – | – | – | – | – | – | 31.8 µM | – | – |
| COc1ccc2ccccc2c1CN1CCOCCOCCN(Cc2c(OC)ccc3ccccc23)CCOCCOCC1 | 70.5 µM | – | > 100 µM | > 100 µM | > 100 µM | > 63.2 µM | – | > 100 µM | – |
| CN1c2ccccc2S(=O)(=O)n2c(CCc3ccccc3)nnc21 | – | – | – | – | – | – | > 100 µM | – | – |
| CC1(O)CCC2(C)C(=O)C1(C)CCC21OCCO1 (stereo unspecified) | > 100 µM | > 100 µM | – | > 100 µM | > 100 µM | > 100 µM | – | > 100 µM | – |
| CCn1c(=O)c2c3ccc(OC(C)=O)cc3[nH]c2c2ccc(OC(C)=O)cc21 | – | – | – | – | – | – | > 100 µM | – | – |
| C/C=C(/C)c1cnc(CC(C)C)c(=O)[nH]1 | – | – | – | – | – | – | > 100 µM | – | – |
| CC1=NOC(=O)C1N=Nc1ccc(Br)c(C)c1 (stereo unspecified) | 45.6 µM | 19.8 µM | > 100 µM | 29.1 µM | 35.6 µM | 31.7 µM | – | 63.1 µM | – |
| C[C@]12CC[C@H]3[C@@H](CC[C@]4(O)C[C@@H](O)CC[C@]34CO)[C@@]1(O)CC[C@@H]2C1=CC(=O)OC1 | – | – | – | – | – | – | 14.4 µM | – | – |
| COc1ccccc1NC(=O)C1=C(C)NC(C)=C(C(=O)Nc2ccccc2OC)C1c1ccc(N(C)C)cc1 | – | – | 96.8 µM | > 100 µM | > 100 µM | 57.1 µM | – | 55.1 µM | – |

| Structure (SMILES) | TGI [1] | TGI [2] | TGI [3] | TGI [4] | TGI [5] | TGI [6] | TGI [7] | TGI [8] | also measured |
| --- | --- | --- | --- | --- | --- | --- | --- | --- | --- |
| COC(=O)C1Cc2c([nH]c3ccccc23)C(c2ccccc2O)N1Cc1ccccc1 (stereo unspecified) | > 31.6 µM | > 46.4 µM | > 46.4 µM | 43.9 µM | > 46.4 µM | – | – | > 100 µM | TGI [9]: 45.3 µM |
| Nc1cc2[nH]cnc2c(=O)[nH]1 | > 146 µM | > 300 µM | > 300 µM | – | > 300 µM | 29.4 µM | > 300 µM | > 300 µM | TGI [10]: > 300 µM; TGI [11]: > 300 µM |
| COC(=O)C(=O)C(C(=O)C(N)=O)c1nc2ccc(C(=O)c3ccccc3)cc2[nH]c1=O (stereo unspecified) | – | – | – | – | – | – | > 100 µM | – | – |
| COc1c(Sc2ccccc2)cc(Sc2ccccc2)c2cccnc12 | 49.3 µM | – | 50.2 µM | > 100 µM | 94.9 µM | 45.6 µM | – | > 100 µM | TGI [9]: > 100 µM |
| NC(=O)c1csc(C2CCC(CO)O2)n1 (stereo unspecified) | > 100 µM | > 100 µM | > 100 µM | > 100 µM | > 100 µM | – | – | – | – |
| Clc1ccc2c(c1)[nH]c1c2nc2sccn21 | > 100 µM | > 100 µM | > 100 µM | > 100 µM | > 100 µM | > 100 µM | – | > 100 µM | TGI [9]: > 100 µM |
| O=C(CSc1nc(-c2ccccc2)c(-c2ccccc2)[nH]1)NNC(=S)Nc1ccccc1 | > 100 µM | – | > 100 µM | > 100 µM | > 100 µM | > 100 µM | – | > 100 µM | – |
| N#Cc1c(C[n+]2ccccc2)c2ccccc2oc1=O | > 100 µM | – | > 100 µM | > 100 µM | > 100 µM | > 100 µM | – | > 100 µM | – |
| COc1cc2c(c(OC)c1OC)-c1ccc(O)c(=O)cc1[C@@H](NC(C)=O)CC2 | – | – | – | – | – | – | 34.4 µM | – | – |
| CN1C(=O)C2C=CC1C1CCC2N(C)C1=O (stereo unspecified) | > 100 µM | > 100 µM | – | > 100 µM | > 100 µM | – | – | > 100 µM | TGI [9]: > 100 µM |
| CCOC(=O)Cc1csc(N=Nc2c(O)[nH]c3ccccc23)n1 | – | – | – | – | – | – | > 100 µM | – | – |
| COc1cc2c3c(c1OC)C1(C=CC(=O)C=C1)CC3NCC2 (stereo unspecified) | – | – | – | – | – | – | > 100 µM | – | – |
| COc1ccc(N2C(=O)C3c4[nH]c5ccccc5c4C4CCCCCCC4C3C2=O)cc1 (stereo unspecified) | 18.6 µM | 3.2 µM | > 100 µM | 17.1 µM | > 80.3 µM | 25.7 µM | – | > 43.4 µM | – |
| CCC[CH2][Sn]1([CH2]CCC)[O]C(=O)c2ccc(N)cc2[O]1 | 2.56 µM | 2.18 µM | 3.17 µM | 0.248 µM | 1.66 µM | – | 1.97 µM | – | GI50 [1]: 1.04 µM; GI50 [2]: 0.997 µM; GI50 [3]: 1.57 µM; GI50 [4]: 0.0365 µM; GI50 [7]: 0.668 µM |
| O=C(O)Cc1ccccc1CCc1ccccc1Cl | > 100 µM | > 100 µM | > 100 µM | > 100 µM | > 100 µM | > 100 µM | – | > 100 µM | – |
| Cc1ccc2sc3ccc(N)cc3c(=O)c2c1 | – | – | – | – | – | – | > 100 µM | – | – |
| COC(=O)[C@@]1(C)CCC[C@]2(C(=O)O)C3Cc4occc4[C@H](C)[C@@H]3CCC21 (stereo partly specified) | – | – | – | – | – | – | > 100 µM | – | – |
| CCOC(=O)C1=C(Nc2ccc(Cl)c(Cl)c2)OC/C1=N\NC(=O)Cc1ccccc1 | > 100 µM | > 100 µM | > 100 µM | > 100 µM | > 100 µM | > 100 µM | – | > 100 µM | – |
| Clc1ccc(-c2c(C3=NCCN3)nnn2-c2ccccc2)cc1 | > 100 µM | > 100 µM | > 100 µM | > 100 µM | > 100 µM | > 100 µM | – | > 100 µM | – |
| COc1cc(/C=C/c2ccc(OC)c(OC)c2OC)cc(OC)c1OC | 41 µM | 44.9 µM | 55.3 µM | 54.9 µM | 51 µM | 72.3 µM | – | > 100 µM | TGI [9]: 51.2 µM |
| O=c1cc(-c2ccccn2)[nH]c2cc(F)ccc12 | – | > 100 µM | > 100 µM | > 100 µM | > 100 µM | – | – | > 100 µM | TGI [9]: > 100 µM |
| CCCCCCCCCCCCCCCCCCNC(=O)OCC(CNS(=O)(=O)CCC[n+]1cccc2ccccc21)COC (stereo unspecified) | – | 15.4 µM | 2.15 µM | – | – | – | – | 27.5 µM | – |
